Measurements taken from publication PMC7840129, “Structural basis for heme-dependent NCoR binding to the transcriptional repressor REV-ERBβ” (Science Advances, 2021).

System: REV-ERBβ LBD cobound to heme
Assay: Crystal structures of REV-ERBβ LBD cobound to heme and NCoR ID peptides
Format: binding, human
Conditions: ID1 PDB 6WMQ, ID2 PDB 6WMS
Procedure: After overnight incubation at 4°C with peptide, REV-ERBβ LBD cobound to heme and peptide was buffer-exchanged into Hepes gel filtration buffer to remove unbound and concentrated to 15 mg/ml (ID2-bound) or 5 mg/ml (ID1-bound). Buffer-exchanged proteins were screened for conditions that produced crystals using the NR LBD (Molecular Dimensions), Structure (Molecular Dimensions), Index (Hampton Research), and PEG/Ion (Hampton Research) kits and sitting drop method (1-μl reservoir solution added to 1-μl drop of protein solution) at 22°C. REV-ERBβ LBD crystals cobound to heme and NCoR ID2 grew in 0.2 M Mg formate dihydrate and 20% (w/v) PEG 3350 (PEG/Ion), and REV-ERBβ LBD crystals cobound to heme and NCoR ID1 grew in 2.0 M ammonium sulfate, 0.1 M Na Hepes (pH 7.5), and 2% PEG 400 (Structure). Crystals in their respective condition were supplemented with 10% glycerol and flash-cooled in liquid nitrogen. X-ray diffraction data were collected at the Advanced Light Source synchrotron (Lawrence Berkeley National Laboratory) in 180 images with a 1° rotation per image. Data were processed, indexed, and scaled using Mosflm and Scala in CCP4 (Collaborative Computational Project No. 4) ([32], [33]). […]
Structures were aligned, and RMSD values were calculated in PyMOL using the “align” command with cycles set to 0 (no outliers were removed). […]

Compound	interaction of bound ID peptide in crystal structure (in words)
CC[C@H](C)[C@H](NC(=O)[C@H](CC(=O)O)NC(=O)[C@H](CCC(=O)O)NC(=O)[C@H](CC(C)C)NC(=O)CNC(=O)[C@H](CC(C)C)NC(=O)[C@H](CC(N)=O)NC(=O)[C@H](CO)NC(=O)[C@H](C)NC(=O)[C@@H]1CCCN1C(=O)[C@H](CC(=O)O)NC(C)=O)C(=O)N[C@H](C(=O)N[C@@H](CCCNC(=N)N)C(=O)N[C@@H](CCCCN)C(=O)N[C@@H](C)C(=O)N[C@@H](CC(C)C)C(=O)N[C@@H](CCSC)C(=O)NCC(=O)N[C@@H](CO)C(=O)N[C@@H](Cc1ccccc1)C(=O)N[C@@H](CC(=O)O)C(=O)N[C@@H](CC(=O)O)C(=O)N[C@@H](CCCCN)C(N)=O)[C@@H](C)CC [NCoR ID2 peptide]	formed electrostatic interactions with the conserved charge clamp residue K421 on helix 3
Ac-RTHRLITLADHICQIITQDFARN-NH2 [NCoR ID1 peptide]	formed electrostatic interactions with the conserved charge clamp residue K421 on helix 3
